# Results: US5955421A, “Peptides containing D-2-alkyl-Tryptophan” (priority 1990, dated 1999)
# pEC50: −log10 of the molar value. Square brackets hold non-standard residues; d marks the D form. Peptide text beside a SMILES is read from it.
# Experiments:
# [1] = test system: GH release; assay: Released GH in ten day-rats, s.c. (Table 9); type: in vivo; settings: 15 minutes
# Protocol: In vivo activity of these compounds was determined in ten day-rats, which were subcutaneously injected (s.c.) with a dose of 300 μg/kg or with different doses in dose-response studies, according to the procedure as described in Deghenghi et. al, Life Sciences 54, 1321 (1994). The released GH was measured 15 minutes following compound administration.
# [2] = test system: GH release; assay: GH response in conscious, freely-moving rats after antiserum pretreatment, i.v. 25 μg/kg; type: in vivo; settings: 25 μg/kg i.v.
# Protocol: Sixty male rats were prepared with indwelling venous catheters under ether anesthesia three days before experimentation. On the day of experimentation, all animals were given an iv heparin injection (100 IU; 0630 h). At 0700 h, animals were treated with 0.5 ml of either normal serum (control-as), somatostatin antiserum (somatostatin-as; 0.25 ml+0.25 ml saline), growth hormone-releasing hormone antiserum (GHRH-as; 0.25 ml+0.25 ml saline), or both somatostatin antiserum and growth hormone-releasing hormone antiserum (0.25 ml somatostatin-as+0.25 ml GHRH-as). Blood sampling began 60 minutes after antiserum pretreatment, with blood samples collected every 20 minutes for three hours. After the 180 minute sample (1100 h), animals were treated iv with 25 μg/kg of either Hexarelin or GHRP-6. Blood samples were then collected at 5, 10, 15, 20, 30, 40, and 60 minutes after peptide treatment. All samples were centrifuged immediately and the plasma frozen until assayed. The peak GH response to Hexarelin and GHRP-6 as well as the area under the response curves (AUCs) for the thirty minutes following peptide injection were calculated. Data were subjected to repeated measures analysis of variance and are expressed as mean±SEM.
# [3] = test system: GH release; assay: Plasma GH after s.c. administration in male rats anesthetized with ketamine and xilazine; type: in vivo; settings: 0 min (before injection)
# Protocol: (§1) Male Sprague Dawley rats (Charles River, Calco, Italy) of 2-3 months of age were used. Rats were housed at 22 +2° C., with lighting cycle of 14 h light: 10 h dark (lights on from 06.00 to 20.00 h), at least 10 days before starting the experiments. A standard dry diet and water were available ad libitum.
# (§2) Between 09.00-10.00 h rats were anesthetized with ketamine (58 mg/kg, Inoketam, VIRBAC, Milano) and xilazine (12 mg/kg, Rompun, Bayer, Milano). Thirty minutes later, a blood sample ([…]) was withdrawn from the exposed jugular vein, peptides were injected intravenously or subcutaneously, and further blood samples were collected 10, 20 and 30 minutes later.
# (§3) Medium and plasma GH was measured by radioimmunoassay using materials supplied by the NIADDK Bethesda, Md. Values were expressed in term of NIASSK-rat-GH-RP-2 standard (potency 2 IU/ml), as ng/ml of medium or plasma.
# (§4) The minimum detectable value of rat was 1.0 ng/ml; intra-assay variability was 6%. To avoid inter-assay variation, samples from each experiment were assayed simultaneously.
# [4] = test system: adenylcyclase; assay: Adenylcyclase activity in anterior pituitary gland cells; type: cell-based; settings: anterior pituitary gland cells from rats weighing 150 g
# [5] = test system: GH release; assay: Plasma GH after i.v. administration in male rats anesthetized with ketamine and xilazine; type: in vivo; settings: 0 min (before injection)
# Protocol: as §1, §2, §3, §4
# [6] = test system: pituitary cell monolayers; assay: GH secretion of pituitary cell monolayers incubated with peptides; type: cell-based, rats; settings: 2 hours incubation
# Protocol: as §1
# Pituitary tissue used for cell dissociation included only the anterior lobe. Briefly, pituitary glands were collected in sterile F-10 medium and after cutting into small fragments incubated twice (30 minutes each) at 37° C. in F-10 medium containing 6% fetal calf serum and collagenase (2.5 mg/ml) (Boehringer, Mannheim GmbH, Germany). Fragments were then washed in Dulbecco's PBS, Ca^2 + and Mg^2 + free medium and mechanically dissociated. Single cell suspension was planted onto 24-well (2×10^5 cells/well) culture plates. The cells were incubated in F-10 medium supplemented with 10% horse serum, 4% fetal calf serum and gentamycin (25 μg/ml), in a humidified atmosphere of 5% CO2 and 95% air at 37° C.
# After 3 days, the medium was removed and the cells washed twice with serum free F-10, then incubated with 1 ml of F-10 containing 0.1% BSA only, or with added various concentrations of synthetic peptides.
# After incubation for 2 h at 37° C., media were collected and stored frozen at -20° C. until assayed for measurement of GH content.
# as §3, §4
# [7] = test system: rat; assay: Acute cardiovascular toxicity in the rat, single i.v. dose, mortality; type: in vivo; settings: observed up to 4 hours
# Protocol: These two peptides were also tested for acute cardiovascular toxicity in the rat.
# Dosages were calculated on the basis of the declared peptide content in each product, as specified below:
# A single dose of HEXARELIN or GHRP-6 was administered to rats in different calendar dates in such a way that each group/dose should be treated in two subsequent days.
# For each compound, appropriate amounts of solutions in 0.9% NaCl for injection were prepared just before treatment at the suitable concentrations. The solutions were sterilized by filtration (Millipore filter, pore size 0.22 μm). Owing to the type of the study (acute study) in which formulates were administered just after preparation, stability checks were not performed. Concentration checks were also not performed. The volume of solution injected was maintained constant at 1 ml/Kg.
# The intravenous injections were done as a single dose in one vein of the tail with an appropriately gauged sterile, disposable, plastic syringe. The injection rate was about 0.1 ml/sec.
# Periodical observations were made up to 4 hours after treatment. Abnormality and mortality were recorded. Body weight was recorded once during pre-trial and on the administration day to calculate the volumes to be injected.
# [8] = Stability of D-Trp and D-2-methyl-Trp in 1% solutions (HPLC peak area); type: physicochemical; settings: pH 2.2 citrate buffer, dark, helium (FIG. 1), pH 5.4 acetate buffer, oxygen, constant light (FIG. 2)
# [9] = 300 μg/kg s.c., GH control 10 to 31 ng/ml depending on experiment
molecule,measurement,setting,value
imidazolylacetyl-D-Mrp-Ala-Trp-D-Phe-Lys-NH2,GH released,[1]; [9],159 ± 27 ng/mL
4-(aminomethyl)cyclohexanecarbonyl-D-Mrp-D-Trp-Phe-Lys-NH^2,GH released,[1]; [9],111.8 ± 24.6 ng/mL
"C[C@H](NC(=O)[C@@H](Cc1c[nH]c2ccccc12)NC(=O)[C@@H](N)Cc1c[nH]cn1)C(=O)N[C@@H](Cc1c[nH]c2ccccc12)C(=O)N[C@H](Cc1ccccc1)C(=O)N[C@@H](CCCCN)C(N)=O [GHRP-6, His-D-Trp-Ala-Trp-D-Phe-Lys-NH2] (H-H[dW]AW[dF]K-NH2)",Mean GH,[2]; main peptide effect pooled over antiserum pretreatments,131 ± 13 ng/mL
same,Peak GH,[2]; pooled over antiserum pretreatments,293 ± 41 ng/mL
same,GH AUC,"[2]; thirty minutes following injection, pooled over antiserum pretreatments",4220 ± 665 ng/ml/30 min
same,plasma GH,[3]; s.c. 150 μg/kg,20.0 ± 5.0 ng/mL
same,plasma GH,[3]; s.c. 300 μg/kg,20.0 ± 6.0 ng/mL
same,plasma GH,[3]; s.c. 600 μg/kg,18.0 ± 4.0 ng/mL
same,"adenylcyclase activity, increase compared with the baseline",[4],inactive
same,plasma GH,[5]; i.v. 150 μg/kg,30.2 ± 7.8 ng/mL
same,plasma GH,[5]; i.v. 300 μg/kg,21.9 ± 4.4 ng/mL
same,plasma GH,[5]; i.v. 600 μg/kg,21.2 ± 6.1 ng/mL
same,GH-releasing activity,[6]; 10^-6 M,510.0 ± 12.0 ng/well
same,GH-releasing activity,[6]; 10^-7 M,526.5 ± 19.0 ng/well
same,GH-releasing activity,[6]; 10^-8 M,544.2 ± 23.9 ng/well
same,Dead rats/Total No of rats per group,[7]; 2.5 mg/kg i.v. single dose,0/6
same,Dead rats/Total No of rats per group,[7]; 5.0 mg/kg i.v. single dose,1/6
same,Dead rats/Total No of rats per group,[7]; 7.5 mg/kg i.v. single dose,2/6
"N[C@H](Cc1c[nH]c2ccccc12)C(=O)O [unsubstituted Trp, D-Tryptophan, reference compound]",time stable in solution (HPLC peak area),[8],about 20 days
"Cc1[nH]c2ccccc2c1C[C@@H](N)C(=O)O [substituted Trp, D-2-Methyl-Tryptophan]",time stable in solution (HPLC peak area),[8],≥ 60 days
D-Ala-D-Mrp-Ala-Trp-D-Phe-Lys-NH2 [D-Ala-D-Mrp--Ala--Trp-D-Phe--Lys--NH2],pEC50,[4],9.64
same,"adenylcyclase activity, increase compared with the baseline",[4],30%
same,GH released,"[1]; 40 μg/kg s.c., GH control 34 ± 1",200 ± 20 ng/mL
same,GH released,"[1]; 320 μg/kg s.c., GH control 34 ± 1",251 ± 32 ng/mL
